Measured values reported in patent publication US20200292528A1, “CELL CHEMOTAXIS ASSAYS” (The General Hospital Corporation, priority 2013, published 2020).

Experiments:
neutrophils [1] = assay: Microfluidic neutrophil chemotaxis assay, healthy donor whole blood (finger prick, venous) and isolated neutrophils; type: cell-based, human; settings: for neutrophils recruited from finger prick whole blood (count): average of 16 attractant chambers
Method: Capillary blood (50 μL) was collected by pricking a finger of healthy volunteers. The blood was then pipetted into an eppendorf tube containing a mixed solution of HBSS media, heparin anti-coagulant (1.65 USP/50 μL of blood), and Hoescht stain (10 μL, 32.4 μM). […] Louis, Mo.) or Leukotriene B4 (LTB4) (Caymen Chemicals, Ann Arbor, Mich.) [100 nM] immediately after the PDMS donut-shaped device was bonded to the well plate. The chemoattractant solution also contained fibronectin [25 nM] (Sigma-Aldrich, St. Louis, Mo.) to promote neutrophil surface adhesion. The chemoattractant was pipetted into the whole blood loading chamber (WBLC) and directly around the circumference of the device. […] Afterwards, the central whole-blood loading chamber and the outside region surrounding the donut were washed thoroughly with Phosphate Buffered Saline (PBS) in each well to wash away excess chemoattractant. The wells of the plate were then filled with RPMI 1640 media and allowed to sit for a period of 15 minutes to generate stable chemoattractant gradients. […] Capillary blood (50 μL) was collected by pricking a finger of healthy volunteers. The blood was then pipetted into an eppendorf tube containing a mixed solution of HBSS media, heparin anti-coagulant (1.65 USP/50 μL of blood), and Hoescht stain (10 μL, 32.4 μM). […] For venous blood samples, 10 mL of peripheral blood was drawn from a health volunteer into tubes containing 33 US […] (Vacutainer, Becton Dickinson, Franklin Lakes, N.J.). […] To compare the whole blood results with neutrophil migration from an isolated sample, we also isolated human neutrophils from whole blood using HetaSep followed by the EasySep Human Neutrophil Enrichment Kits (STEMCELL Technologies Inc. Vancouver, Canada) following the manufacturer's protocol. […] Louis, Mo.) at a density of 40,000 cells/μL and kept at 37° C. cell until devices were properly primed. […] Directionality of primed neutrophils was quantified by counting the number of cells that followed the chemotactic gradient and turned at the bifurcation toward the chemoattractant chamber as opposed to the number of cells that exited the device to the peripheral region. Cell velocities were calculated using Image J (NIH) and data analysis with GraphPad Prism. Neutrophil migration toward different attractants (fMLP and LTB4) was also examined. […] The concentrations of the three different chemoattractants were varied from 10 nM to 50 nM to 100 nM. Solutions containing fibronectin [25 nM] and exclusive of fibronection were prepared. Finger prick blood and venous blood were obtained as described above in Example 3.

mouse neutrophils = assay: Inter-species microfluidic neutrophil chemotaxis from one droplet of whole blood: C57BL/6 and Sv129S6 mice; type: cell-based; settings: for directionality of Sv129S6 mouse neutrophils compared with humans: Sv129S6 mouse versus human
Method: (§1) The microfluidic device to study mouse, rat and human neutrophil chemotaxis from one droplet of whole blood was designed with three main components: focal chemoattractant chambers (FCCs) (200×200 μm), a central whole-blood loading chamber, and migration channels containing RBC filtering regions. The filter for each migration channel included 10 short channels (Length ˜75 μm) with a 3.5 μm narrowing region (‘pinch’) connected horizontally through an approximately 200-μm-long channel to create 90° bending sections capable of trapping the RBCs to prevent them from dispersing into the rest of the migration channel. All migration channels were designed to be 12 μm wide and 3 μm high to establish only a single column of RBCs for efficient trapping while allowing active mouse, rat and human neutrophils to easily migrate through. The devices were fabricated as described above in Example 2.
(§2) For humans, 50 μL of capillary blood was collected by pricking a finger of healthy volunteers. For mice, 50 μL of capillary blood was collected by the facial vein method (Institutional animal care and use Protocol #2007N000136) requiring no anesthesia. For rats, 50 μL of venous blood was collected from the tail vein (Institutional animal care and use Protocol #2012N000034) using 1-2% Isoflurane inhalant. The blood was then pipetted into an eppendorf tube containing a mixed solution of HBSS media, heparin anti-coagulant (1.65 USP/50 μL of blood), and Hoechst stain (10 μL, 32.4 μM). The eppendorf tube was then incubated for 10 minutes at 37° C. and 5% CO2 to allow for proper staining of the nuclei.
(§3) All reagents and whole blood were pipetted into the device and there was no flow or requirement of external syringe pump. A gradient of the chemoattractant was established along the migration channels by diffusion between the chemoattractant chambers and the central loading chamber. Prior to cell loading and immediately after bonding to the well plate, donut-shaped devices were filled with the chemoattractant solution containing 25 nM of fibronectin (Sigma-Aldrich, St. Louis, Mo.). The well plate was then placed in a desiccator under vacuum to de-gas for 15 minutes to ensure proper filling of the chambers while the PDMS surface was still hydrophilic. Afterwards, the central whole-blood loading chamber and the outside region surrounding the donut were washed thoroughly in each well to establish the gradient along the migration channels. The wells of the plate were then filled with RPMI 1640 media and allowed to sit for a period of 15 minutes to generate stable chemoattractant gradients. Finally, using a gel-lading tip, 2 μL of whole blood was slowly pipetted into the central whole-blood loading chamber.
(§4) Time-lapse imaging was performed on a Nikon Eclipse Ti microscope with 10-15× magnification and a biochamber heated to 37° C. with 5% CO2 and 80% humidity. […] For each experiment, at least 50 neutrophils were manually tracked. Directionality of primed neutrophils was quantified by counting the number of cells that followed the chemotactic gradient and turned at the bifurcation toward the chemoattractant chamber as opposed to the number of cells that exited the device to the peripheral region. Cell velocities were calculated using ImageJ (NIH). Total percentage of neutrophils to migrate was estimated using a COMSOL simulation model that estimated that 30.6% of area in whole blood loading chamber from which neutrophils could migrate in experimental time to be above critical gradient concentration. For an average human experiment, this would estimate ˜277 neutrophils per well that are exposed to chemoattractant gradient.

neutrophils [2] = assay: Microfluidic neutrophil chemotaxis assay, blood of a burn patient (24% TBSA) over 3 weeks; type: cell-based, human; settings: for neutrophil accumulation counts versus healthy volunteer: three weeks post-burn
Method: Blood samples of 1 mL were collected from one burn patient suffering from 24% total body surface area (TBSA) burn. Procedures for fabricating the device, preparing the chemoattractant gradient, and performing time-lapse imaging were conducted as explained above with respect to examples 2-4.
Neutrophil chemotaxis was monitored over a 3 week treatment period. FIG. 10A is a plot of neutrophil migration counts in the attractant chamber with no chemoattractant gradient, with fMLP chemoattractant gradient [100 nM], and with LTB4 chemoattractant gradient [100 nM]. FIG. 10B is a plot of velocity [μm/min] of neutrophils migrating to LTB4 compared with fMLP over a three week period. FIG. 10C is a plot of directionality index of neutrophils migrating to LTB4 compared with fMLP. All graphs correspond to average cell counts across 16 attractant chambers.

Wistar rat neutrophils = assay: Inter-species microfluidic neutrophil chemotaxis from one droplet of whole blood: Wistar rat; type: cell-based; settings: for percentage of neutrophils that migrated: Wistar rat whole blood
Method: as §1, §2
All reagents and whole blood were pipetted into the device and there was no flow or requirement of external syringe pump. A gradient of the chemoattractant was established along the migration channels by diffusion between the chemoattractant chambers and the central loading chamber. Prior to cell loading and immediately after bonding to the well plate, donut-shaped devices were filled with the chemoattractant solution containing 25 nM of fibronectin (Sigma-Aldrich, St. Louis, Mo.). The well plate was then placed in a desiccator under vacuum to de-gas for 15 minutes to ensure proper filling of the chambers while the PDMS surface was still hydrophilic. […]
Time-lapse imaging was performed on a Nikon Eclipse Ti microscope with 10-15× magnification and a biochamber heated to 37° C. with 5% CO2 and 80% humidity. […] Directionality of primed neutrophils was quantified by counting the number of cells that followed the chemotactic gradient and turned at the bifurcation toward the chemoattractant chamber as opposed to the number of cells that exited the device to the peripheral region. Cell velocities were calculated using ImageJ (NIH). […]

human neutrophils = assay: Inter-species microfluidic neutrophil chemotaxis from one droplet of whole blood: human; type: cell-based; settings: for percentage of neutrophils that migrated: 2 μL whole blood
Method: as §1, §2, §3, §4

[3] = 1 week after burn, 100 nM gradient, versus healthy volunteer

Molecule: fibronectin
- effect of inclusion in the chemoattractant solution on final neutrophil counts migrating towards fMLP (neutrophils [1]; 25 nM, pin prick and venous blood): does not appear to change final neutrophil counts

Molecule: CCCCC/C=C\C[C@@H](O)/C=C/C=C/C=C\[C@@H](O)CCCC(=O)O [LTB4, Leukotriene B4]
- percentage of neutrophils that migrated (mouse neutrophils; C57BL/6 mouse whole blood): 52.7±24%
- directionality of Sv129S6 mouse neutrophils compared with humans (mouse neutrophils): comparable
- percentage of neutrophils that migrated (mouse neutrophils; Sv129S6 mouse whole blood): 99.5±13%
- neutrophil accumulation counts versus healthy volunteer (neutrophils [2]): in the normal range
- reduction in neutrophil velocity (neutrophils [2]; two weeks post-burn): 40%
- neutrophils recruited from finger prick whole blood (count) (neutrophils [1]; 100 nM gradient, after 200 min): 39±12 cells/device
- neutrophil velocity (neutrophils [1]; finger prick whole blood): 20±7 μm/min
- percentage of neutrophils that migrated (Wistar rat neutrophils): 2.8±1.1%
- percentage of neutrophils that migrated (human neutrophils): 54.0±5.6%

Molecule: CSCC[C@H](NC=O)C(=O)N[C@@H](CC(C)C)C(=O)N[C@@H](Cc1ccccc1)C(=O)O [fMLP, N-formyl-methionyl-leucyl-phenylalanine]
- directional index of neutrophils (mouse neutrophils; C57BL/6 mouse): 0.61±0.07
- velocity of neutrophils towards the chemoattractant (mouse neutrophils; C57BL/6 mouse): 13±7.4 μm/min
- velocity of C57BL/6 neutrophils, fold lower than Sv129S6, rat or human (mouse neutrophils; C57BL/6 mouse versus Sv129S6, rat, human): ~2.5 fold
- directional index of neutrophils (mouse neutrophils; Sv129S6 mouse): 0.82±0.06
- velocity of neutrophils towards the chemoattractant (mouse neutrophils; Sv129S6 mouse): 19.7±8.7 μm/min
- reduction in directionality (neutrophils [2]; [3]): 50%
- reduction in neutrophil velocity (neutrophils [2]; [3]): 75%
- neutrophil accumulation counts versus healthy volunteer (neutrophils [2]): lower than the average healthy volunteer count
- number of cells accumulating, above the normal healthy volunteer range (neutrophils [2]; two weeks post burn, patient had fever): 15%
- reduction in neutrophil velocity (neutrophils [2]; two weeks post-burn): 60%
- neutrophils recruited from finger prick whole blood (count) (neutrophils [1]; 100 nM gradient, after 200 min): 86±7 cells/device
- neutrophil accumulation numbers (neutrophils [1]; 100 nM gradient, after 3.5 hours, venous, finger prick and isolated neutrophil sources): around 135±20 cells/device
- average neutrophil migration counts in 6 separate devices (neutrophils [1]; 100 nM gradient, finger prick whole blood of one healthy donor, after 200 min): 83±12 cells
- neutrophil migration counts per chamber, average of healthy donors (neutrophils [1]; 100 nM gradient, finger prick whole blood, after 200 min, 5 out of 7 donors clustered around it): 92±35 cells
- time until neutrophils began migrating towards the gradient (neutrophils [1]; 100 nM gradient, venous and finger prick whole blood and isolated neutrophils): ≤ 20 min
- neutrophil count recruited relative to LTB4 (neutrophils [1]; 100 nM gradients, finger prick whole blood, 200 min): two-fold higher count
- neutrophil velocity (neutrophils [1]; finger prick whole blood): 19 ±6 μm/min
- percentage of neutrophils that migrated (Wistar rat neutrophils): 10.9±8.5%
- directional index of neutrophils (Wistar rat neutrophils; rat): 0.62±0.12
- velocity of neutrophils towards the chemoattractant (Wistar rat neutrophils; rat): 26.2±5.9 μm/min
- directional index of neutrophils (human neutrophils): 0.85±0.06
- velocity of neutrophils towards the chemoattractant (human neutrophils): 23.4±5.4 μm/min
- percentage of neutrophils that migrated (human neutrophils): 55.8±19.8%

B1: C5a: the protein fragment C5a, neutrophil attractant (protein, UniProt P01031 678-751, looked up)
C5a anaphylatoxin: TLQKKIEEIAAKYKHSVVKKCCYDGACVNNDETCEQRAARISLGPRCIKAFTECCVVASQLRANISHKDMQLGR
modifications: C5a anaphylatoxin
notes: the protein fragment C5a, neutrophil attractant
- percentage of neutrophils activated (mouse neutrophils; Sv129S6 mouse): 18.3±3%
- directionality of Sv129S6 mouse neutrophils compared with humans (mouse neutrophils): lower than in humans
- migration pattern of activated mouse neutrophils (mouse neutrophils; mouse): random migration
- percentage of neutrophils that migrated in response to the chemoattractant in the FCC (mouse neutrophils; mouse (Sv129S6)): 1±0.8%
- percentage of neutrophils activated (human neutrophils): 63.3±7.6%
- percentage of neutrophils that migrated in response to the chemoattractant in the FCC (human neutrophils): 26.8±5.9%
